# “And” between values parts separate entries of the source, which are not always exact repeats. Identical values can stand only once. Like-named read-outs stand apart in the source and are kept apart here.
# Assays:
# [1] = Kinetic aqueous solubility; format: physicochemical
# Protocol: Kinetic aqueous solubility. Test compounds were diluted 100-fold from 1 mM DMSO stocks into 0.1M phosphate-buffered saline (PBS) in triplicate. Diluted samples were shaken at room temperature at 600 rpm for 3 hours and then filtered by centrifugation (0.2 μm, PVDF) at 1,000g for 1 minute. Aliquots of 100 μL were diluted into 3 volumes of acetonitrile for extraction, vortexed for 15 seconds, centrifuged at 16,000g for 10 minutes at 4°C, and then analyzed by liquid chromatography–mass spectrometry (LC-MS).
# [2] = LogD determination (PBS/n-octanol); format: physicochemical; conditions: 1:1 0.1M PBS/n-octanol, mean of duplicate, 37°C
# Protocol: LogD determination. Test compounds were diluted by adding 12 μL of 1 mM DMSO stocks to 1,188 μL of 1:1 0.1M PBS/n-octanol in duplicate. Samples were vortexed, shaken at 600 rpm for 3 hours at 37°C. Samples (100 μL) of each phase layer were extracted in 3 volumes of acetonitrile for 15 minutes, centrifuged at 10,000g for 10 minutes, and then analyzed by LC-MS. The ratio of concentrations measured in the organic and aqueous phases was log10 transformed to determine the logD.
# PKCε = target: T1, PKCε (Homo sapiens, UniProt Q02156); assay: PKCε activity with increasing ATP and CP612 (ATP competition); format: biochemical; set-up: His; AVI; made in house; host or cells: Sf9 cells; conditions: for Kinase activity (% control): PKCε, log [CP612]
# T1 sequence (Q02156 1-737): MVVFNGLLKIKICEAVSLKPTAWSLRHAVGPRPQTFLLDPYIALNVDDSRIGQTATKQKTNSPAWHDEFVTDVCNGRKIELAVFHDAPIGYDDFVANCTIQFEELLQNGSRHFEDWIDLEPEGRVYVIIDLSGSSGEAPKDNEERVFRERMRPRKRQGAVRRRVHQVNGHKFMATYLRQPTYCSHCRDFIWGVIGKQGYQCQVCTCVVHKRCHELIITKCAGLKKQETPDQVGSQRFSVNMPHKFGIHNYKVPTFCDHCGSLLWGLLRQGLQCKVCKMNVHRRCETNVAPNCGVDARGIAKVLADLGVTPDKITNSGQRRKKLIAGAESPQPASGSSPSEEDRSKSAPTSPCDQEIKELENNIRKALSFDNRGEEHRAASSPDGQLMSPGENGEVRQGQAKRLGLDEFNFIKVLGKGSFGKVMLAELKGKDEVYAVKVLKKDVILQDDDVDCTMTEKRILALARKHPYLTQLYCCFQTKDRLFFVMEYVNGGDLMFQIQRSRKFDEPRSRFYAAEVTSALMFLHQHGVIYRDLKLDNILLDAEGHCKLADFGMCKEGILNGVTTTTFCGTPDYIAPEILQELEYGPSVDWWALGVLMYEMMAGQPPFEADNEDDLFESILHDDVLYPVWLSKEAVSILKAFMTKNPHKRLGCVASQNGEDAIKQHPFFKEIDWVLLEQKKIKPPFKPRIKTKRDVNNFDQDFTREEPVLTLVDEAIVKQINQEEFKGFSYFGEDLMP
# Protocol: Therefore, we assayed PKCε activity with increasing concentrations of ATP and in the presence of increasing concentrations of CP612.
# Kinase assays. CP612 was assayed against His-AVI–tagged human PKCε (1 nM) produced in Sf9 cells, and ROCK1 (Carna Biosciences; 5 nM) using the Lance-FRET kinase assay system (PerkinElmer Revvity). Other human recombinant PKCs (SignalChem Biotech) were assayed in triplicate at the following concentrations: PKCβII 1.6 nM, PKCγ 500 pM, PKCδ 5 nM, PKCθ 500 pM, and PKCζ 500 pM. PKCs were incubated in a 15 μL reaction volume with kinase buffer (20 mM Tris-HCL [pH 7.4], 10 mM MgCl2, 0.25 mM EGTA, 0.1 mg/mL BSA, and 0.15% Triton X-100), 50 nM ULight-labeled CREBtide […] (PerkinElmer, TRF0107, Revvity), and test compound. […] after 60 minutes with 10 μL of 2.5× Stop Solution/Detection Mix containing 20 mM EDTA and 4 nM LANCE Ultra Europium anti–phospho-[…] peptide antibody (PerkinElmer, TRF0200, Revvity). After incubation at 27°C for another 60 minutes, phosphorylation was detected using a FlexStation 3 Microplate Reader (Molecular Devices) in LANCE TR-FRET mode (excitation = 340 nm, emission = 665 nm) and expressed as relative fluorescence units (RFU). The percentage of inhibition was calculated as: (signal without test compound − signal with test compound)/(signal without test compound − signal without ATP) × 100. The Z’ factor for this assay ranged between 0.72 and 0.86.
smiles,measurement,setting,value
N[C@H](CNC(=O)C1(c2ccc(Cl)cc2)CCCC1)c1ccc(C(=O)Nc2ccncc2)cc1 [CP612],solubility kinetic at 3 h,"[1]; 0.1M phosphate-buffered saline (PBS), aqueous buffer, kinetic from dmso stock, 0.1M PBS, room temperature, 3 hours, read-out: Kinetic aqueous solubility",7410 ± 120 nM
same,solubility kinetic at 3 h,"[1]; 0.1M phosphate-buffered saline (PBS), aqueous buffer, kinetic from dmso stock, mean of 3 samples, read-out: Kinetic aqueous solubility, Corrected (nM), Mean",7410 nM
same,solubility kinetic at 3 h,"[1]; 0.1M phosphate-buffered saline (PBS), aqueous buffer, kinetic from dmso stock, single sample, read-out: Kinetic aqueous solubility, Corrected",7540 nM
same,solubility kinetic at 3 h,"[1]; single sample, read-out: Kinetic aqueous solubility, Corrected",7309.08 nM and 7388.24 nM
same,logD at 3 h,[2],1.5 ± 0.75
same,logD,[2],1.504
same,Increase of EC50 for ATP,PKCε; 300 nM CP612,40 fold
same,Kinase activity (% control),"PKCε; [ATP] 0.183 µM, M -8.523, 0.183 µM",47.534 % control and 24.462 % control and 35.552 % control
same,Kinase activity (% control),"PKCε; [ATP] 0.73 µM, M -6, 0.73 µM",0.864 % control and 1.238 % control
same,Kinase activity (% control),"PKCε; [ATP] 2.93 µM, M -5.523, 2.93 µM",0.280 % control and 0.321 % control
same,Kinase activity (% control),"PKCε; [ATP] 2.93 µM, M -6, 2.93 µM",1.498 % control and 2.443 % control
same,Kinase activity (% control),"PKCε; [ATP] 2.93 µM, M -6.523, 2.93 µM",4.077 % control and 4.559 % control
same,Kinase activity (% control),"PKCε; [ATP] 2.93 µM, M -7, 2.93 µM",8.910 % control and 10.659 % control
same,Kinase activity (% control),"PKCε; [ATP] 2.93 µM, M -7.523, 2.93 µM",20.262 % control and 21.135 % control
same,Kinase activity (% control),"PKCε; [ATP] 2.93 µM, M -8, 2.93 µM",38.517 % control and 38.535 % control
same,Kinase activity (% control),"PKCε; [ATP] 2.93 µM, M -8.523, 2.93 µM",63.294 % control and 62.615 % control
same,Kinase activity (% control),"PKCε; [ATP] 11.67 µM, M -6, 11.67 µM",4.132 % control and 3.783 % control
same,Kinase activity (% control),"PKCε; [ATP] 11.67 µM, M -6.523, 11.67 µM",10.586 % control and 9.278 % control
same,Kinase activity (% control),"PKCε; [ATP] 11.67 µM, M -7, 11.67 µM",20.490 % control and 19.346 % control
same,Kinase activity (% control),"PKCε; [ATP] 11.67 µM, M -7.523, 11.67 µM",38.625 % control and 36.759 % control
same,Kinase activity (% control),"PKCε; [ATP] 11.67 µM, M -8, 11.67 µM",63.930 % control and 57.174 % control
same,Kinase activity (% control),"PKCε; [ATP] 11.67 µM, M -8.523, 11.67 µM",75.246 % control and 100.913 % control and 75.385 % control
same,Kinase activity (% control),"PKCε; [ATP] 49 µM, M -6, 49 µM",10.798 % control and 9.001 % control
same,Kinase activity (% control),"PKCε; [ATP] 49 µM, M -6.523, 49 µM",25.250 % control and 20.067 % control
same,Kinase activity (% control),"PKCε; [ATP] 49 µM, M -7, 49 µM",46.048 % control and 35.068 % control
same,Kinase activity (% control),"PKCε; [ATP] 49 µM, M -7.523, 49 µM",52.594 % control and 73.832 % control and 56.661 % control
same,Kinase activity (% control),"PKCε; [ATP] 49 µM, M -8, 49 µM",73.818 % control and 104.476 % control and 73.273 % control
same,Kinase activity (% control),"PKCε; [ATP] 49 µM, M -8.523, 49 µM",102.193 % control and 87.045 % control
same,Kinase activity (% control),"PKCε; [ATP] 187 µM, M -6, 187 µM",22.653 % control and 20.507 % control
same,Kinase activity (% control),"PKCε; [ATP] 187 µM, M -6.523, 187 µM",46.882 % control and 37.693 % control
same,Kinase activity (% control),"PKCε; [ATP] 187 µM, M -7, 187 µM",75.602 % control and 55.920 % control
same,Kinase activity (% control),"PKCε; [ATP] 187 µM, M -7.523, 187 µM",95.087 % control and 100.001 % control and 71.937 % control
same,Kinase activity (% control),"PKCε; [ATP] 187 µM, M -8, 187 µM",104.191 % control and 87.275 % control
same,Kinase activity (% control),"PKCε; [ATP] 187 µM, M -8.523, 187 µM",106.161 % control and 97.914 % control
same,Kinase activity (% control),"PKCε; [ATP] 750 µM, M -5.523, 750 µM",21.316 % control and 15.871 % control
same,Kinase activity (% control),"PKCε; [ATP] 750 µM, M -6, 750 µM",49.150 % control and 51.871 % control
same,Kinase activity (% control),"PKCε; [ATP] 750 µM, M -6.523, 750 µM",85.111 % control and 100.290 % control and 67.168 % control
same,Kinase activity (% control),"PKCε; [ATP] 750 µM, M -7, 750 µM",106.868 % control and 86.984 % control
same,Kinase activity (% control),"PKCε; [ATP] 750 µM, M -7.523, 750 µM",104.196 % control and 100.982 % control
same,Kinase activity (% control),"PKCε; [ATP] 750 µM, M -8, 750 µM",105.985 % control and 104.633 % control
same,Kinase activity (% control),"PKCε; [ATP] 750 µM, M -8.523, 750 µM",106.157 % control and 106.288 % control
same,Mode of inhibition of PKCε,PKCε; rightward shift at higher [ATP],competing with ATP

# Reference: publication PMC12016938, “A small molecule PKCε inhibitor reduces hyperalgesia induced by paclitaxel or opioid withdrawal” (JCI Insight, 2025)
